The values that follow come from patent US20260159512A1, “BCAT2 INHIBITORS” (AGIOS PHARMACEUTICALS, INC., priority 2021, published 2026).

One assay has as its target T1, BCAT2 (Homo sapiens, UniProt O15382).
T1 sequence (O15382 28-392): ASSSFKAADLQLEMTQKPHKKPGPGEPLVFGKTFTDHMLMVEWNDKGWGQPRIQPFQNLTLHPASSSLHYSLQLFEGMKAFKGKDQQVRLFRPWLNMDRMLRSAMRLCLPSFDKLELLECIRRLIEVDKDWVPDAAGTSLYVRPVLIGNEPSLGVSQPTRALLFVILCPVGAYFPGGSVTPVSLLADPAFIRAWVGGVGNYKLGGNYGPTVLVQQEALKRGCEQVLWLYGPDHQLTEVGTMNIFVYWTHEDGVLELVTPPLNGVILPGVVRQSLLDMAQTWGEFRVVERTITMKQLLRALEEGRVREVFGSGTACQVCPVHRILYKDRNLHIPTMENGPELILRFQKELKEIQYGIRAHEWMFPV
Kind of assay: BCAT2 in vitro enzyme inhibition assay (resazurin/diaphorase-coupled fluorescence). Format: biochemical. The conditions noted are these: average where tested multiple times. The method in brief:
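Coupled fluorescence readout: glutamate formed from L-leucine/α-ketoglutarate transamination drives GDH/NAD/diaphorase reduction of resazurin (Ex 540/Em 590). Human BCAT2 was first exposed 1 h at room temperature to compound, top final 100 μM in 3-fold, 10-point series; substrate reaction ran 1 h before SDS quench, in technical duplicate with DMSO max and enzyme-free min controls.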
On the technique in general: Resazurin is reduced to fluorescent resorufin, in cell work by metabolically active cells.

The next assay has as its target T2, hBCAT1 (Homo sapiens, UniProt P54687).
T2 sequence (P54687 1-386): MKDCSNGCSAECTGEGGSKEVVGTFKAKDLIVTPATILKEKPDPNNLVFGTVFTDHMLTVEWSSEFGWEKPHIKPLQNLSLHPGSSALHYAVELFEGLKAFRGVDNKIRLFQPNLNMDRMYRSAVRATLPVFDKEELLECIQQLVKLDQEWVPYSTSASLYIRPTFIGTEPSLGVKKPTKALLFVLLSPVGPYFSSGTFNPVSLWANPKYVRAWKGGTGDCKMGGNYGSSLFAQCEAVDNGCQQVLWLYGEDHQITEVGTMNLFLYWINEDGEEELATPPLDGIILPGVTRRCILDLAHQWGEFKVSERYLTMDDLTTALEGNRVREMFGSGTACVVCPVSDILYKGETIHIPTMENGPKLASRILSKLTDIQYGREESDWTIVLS
Kind of assay: BCAT1 in vitro enzyme inhibition assay (resazurin/diaphorase-coupled fluorescence). The class given is biochemical. The conditions noted are these: average where tested multiple times. The method, then:
BCAT1 In Vitro Enzyme Inhibition Assay
Meanwhile the Substrate Mix was prepared.
Test Compound Preparation:
Test compounds were prepared at 50× final concentration in DMSO, 1 to 3 dilutions were made for 10 points. The compounds were added to the assay as a 1 to 50 dilution (1 μL in 50 μL) to yield a top assay final concentration of 100 μM, decreasing 3-fold for 10 points. […] All tests were performed in technical duplicate.
Where a compound was tested multiple times, the average value of the tests is reported.

Each structure is given as a SMILES string. Some results are limits rather than exact numbers.

`O=C(N[C@H]1CCC[C@@H](n2c(-n3cccn3)nc3cnc(-n4ccnn4)cc32)C1)c1ncc(C(F)F)s1` [Example 57, N-((1S,3R)-3-(2-(1H-pyrazol-1-yl)-6-(1H-1,2,3-triazol-1-yl)-1H-imidazo[4,5-c]pyridin-1-yl)cyclohexyl)-5-(difluoromethyl)thiazole-2-carboxamide]: the IC50 – broadly, the concentration at which inhibition is half-maximal – at BCAT2 is 500 to 1000 nM; against hBCAT1, above 5000 nM.
In the same order, the values of `C#Cc1ccc(C(=O)N[C@H]2CCC[C@@H](n3c(-c4ccccn4)nc4cc(-c5cnco5)ncc43)C2)s1` [Example 153, 5-ethynyl-N-((1S,3R)-3-(6-(oxazol-5-yl)-2-(pyridin-2-yl)-3H-imidazo[4,5-c]pyridin-3-yl)cyclohexyl)thiophene-2-carboxamide] are 100 to 500 nM and above 5000 nM.
For `CC(=O)N1CC(NC(=O)c2ccc(Br)s2)CC(n2c(-c3ccccn3)nc3cc(-c4ncon4)ccc32)C1` (centres unmarked) [Example 284, N-(5-(5-(1,2,4-oxadiazol-3-yl)-2-(pyridin-2-yl)-1H-benzo[d]imidazol-1-yl)-1-acetylpiperidin-3-yl)-5-bromothiophene-2-carboxamide] the same measures were at most 100 nM and 1000 to 5000 nM.
As to `O=C(N[C@H]1CCC[C@@H](n2c(-c3ccccn3)nc3cc(-c4cnco4)ncc32)C1)c1ccc(Br)s1` [Example 154, 5-bromo-N-((1S,3R)-3-(6-(oxazol-5-yl)-2-(pyridin-2-yl)-3H-imidazo[4,5-c]pyridin-3-yl)cyclohexyl)thiophene-2-carboxamide], the half-maximal inhibitory concentration (IC50) against BCAT2 is 500 to 1000 nM; at hBCAT1 it was above 5000 nM.
With `O=C(N[C@H]1CCC[C@@H](n2c(-c3ccccc3F)nc3cnc(N4CCC4)cc32)C1)c1ccc(Br)s1` [Example 301, N-((1S,3R)-3-(6-(azetidin-1-yl)-2-(2-fluorophenyl)-1H-imidazo[4,5-c]pyridin-1-yl)cyclohexyl)-5-bromothiophene-2-carboxamide], the results for the 50% inhibitory concentration (IC50) against BCAT2 and at hBCAT1 were above 1000 nM and above 5000 nM, respectively.
With `CC(C)(O)c1nc2cnc(-n3cncn3)cc2n1[C@@H]1CCC[C@H](NC(=O)c2ccc(Br)s2)C1` [Example 92, 5-bromo-N-((1S,3R)-3-(2-(2-hydroxypropan-2-yl)-6-(1H-1,2,4-triazol-1-yl)-1H-imidazo[4,5-c]pyridin-1-yl)cyclohexyl)thiophene-2-carboxamide], the 50% inhibitory concentration (IC50) was above 1000 nM against BCAT2 and above 5000 nM on hBCAT1.
As for `CC(C)Cc1nc2cnc(-n3nccn3)cc2n1[C@H]1CCC[C@@H](NC(=O)c2ccc(Cl)s2)[C@@H]1O` [Example 394, 5-chloro-N-((1R,2S,3S)-2-hydroxy-3-(2-isobutyl-6-(2H-1,2,3-triazol-2-yl)-1H-imidazo[4,5-c]pyridin-1-yl)cyclohexyl)thiophene-2-carboxamide], the figures for the IC50 against BCAT2 and against hBCAT1 were above 1000 nM and 1000 to 5000 nM, respectively.
Regarding `CC(=O)N1CC(NC(=O)c2ccc(Br)s2)CC(n2c(-c3ccccn3)nc3cc(-c4nnco4)ccc32)C1` (centres unmarked) [Example 282, N-(5-(5-(1,3,4-oxadiazol-2-yl)-2-(pyridin-2-yl)-1H-benzo[d]imidazol-1-yl)-1-acetylpiperidin-3-yl)-5-bromothiophene-2-carboxamide], the half-maximal inhibitory concentration (IC50) against BCAT2 was 100 to 500 nM; on hBCAT1, above 5000 nM.
Turning to `O=C(N[C@H]1CCC[C@@H](n2c(-c3ncccc3F)nc3cnc(N4CCC4)cc32)C1)c1ccc(Br)s1` [Example 300], the IC50 was above 1000 nM on BCAT2 and above 5000 nM against hBCAT1.
For `O=C(N[C@H]1CCC[C@@H](n2c(-c3ccccc3F)nc3cnc(-n4cncn4)cc32)C1)c1ccc(Br)s1` [Example 17, 5-bromo-N-((1S,3R)-3-(2-(2-fluorophenyl)-6-(1H-1,2,4-triazol-1-yl)-1H-imidazo[4,5-c]pyridin-1-yl)cyclohexyl)thiophene-2-carboxamide], the IC50 against BCAT2 was at most 100 nM; on hBCAT1, below 500 nM.
For `O=C(N[C@H]1CCC[C@@H](n2c(-c3ccccn3)nc3cc(-n4nccn4)ncc32)C1)c1ccc(Br)s1` [Example 151, 5-bromo-N-((1S,3R)-3-(2-(pyridin-2-yl)-6-(2H-1,2,3-triazol-2-yl)-3H-imidazo[4,5-c]pyridin-3-yl)cyclohexyl)thiophene-2-carboxamide] the same measures were at most 100 nM and above 5000 nM.
In the case of `O=C(N[C@H]1CCC[C@@H](n2c(N3CCCCC3)nc3cnc(-c4nc[nH]n4)cc32)C1)c1ccc(Cl)s1` [Example 372, 5-chloro-N-((1S,3R)-3-(2-(piperidin-1-yl)-6-(1H-1,2,4-triazol-3-yl)-1H-imidazo[4,5-c]pyridin-1-yl)cyclohexyl)thiophene-2-carboxamide], the figures for the IC50 on BCAT2 and against hBCAT1 were at most 100 nM and below 500 nM, respectively.
Consider `O=C(NC1CCCC(n2c(-c3ccccn3)nc3cc(-c4nnco4)ncc32)C1)c1ccc(Br)s1` (centres unmarked) [Example 157, N-(3-(6-(1,3,4-oxadiazol-2-yl)-2-(pyridin-2-yl)-3H-imidazo[4,5-c]pyridin-3-yl)cyclohexyl)-5-bromothiophene-2-carboxamide], for which the values for the concentration for half-maximal inhibition (IC50) against BCAT2 and at hBCAT1 were at most 100 nM and 1000 to 5000 nM, respectively.
In the same order, the values of `O=C(NC1CCCC(n2c(-c3ccccn3)nc3cc(-c4ncon4)ncc32)C1)c1ccc(Br)s1` (centres unmarked) [Example 155, N-(3-(6-(1,2,4-oxadiazol-3-yl)-2-(pyridin-2-yl)-3H-imidazo[4,5-c]pyridin-3-yl)cyclohexyl)-5-bromothiophene-2-carboxamide] are at most 100 nM and 1000 to 5000 nM.
As to `CC(=O)N1CC(NC(=O)c2ccc(Br)s2)CC(n2c(-c3ccccn3)nc3ccc(C#N)cc32)C1` (centres unmarked) [Example 289, N-(1-acetyl-5-(6-cyano-2-(pyridin-2-yl)-1H-benzo[d]imidazol-1-yl)piperidin-3-yl)-5-bromothiophene-2-carboxamide], the IC50 is 100 to 500 nM on BCAT2 and above 5000 nM against hBCAT1.
As to `CNC(=O)c1cc2nc(-c3ccccn3)n(C3CC(NC(=O)c4ccc(Br)s4)CN(C)C3)c2cc1OC` (centres unmarked) [Example 290, 1-(5-(5-bromothiophene-2-carboxamido)-1-methylpiperidin-3-yl)-6-methoxy-N-methyl-2-(pyridin-2-yl)-1H-benzo[d]imidazole-5-carboxamide], the IC50 against BCAT2 was at most 100 nM; on hBCAT1, above 5000 nM.
Take `O=C(N[C@H]1CCC[C@@H](n2c(-c3ncccc3F)nc3cnc(N4CCNC4=O)cc32)C1)c1ncc(C(F)F)s1` [Example 54, 5-(difluoromethyl)-N-((1S,3R)-3-(2-(3-fluoropyridin-2-yl)-6-(2-oxoimidazolidin-1-yl)-1H-imidazo[4,5-c]pyridin-1-yl)cyclohexyl)thiazole-2-carboxamide]: the results for the IC50 on BCAT2 and at hBCAT1 were at most 100 nM and above 5000 nM, respectively.
For the compound `Cn1ccc(Oc2cc3c(cn2)nc(-c2ncccc2F)n3[C@@H]2CCC[C@H](NC(=O)c3ncc(C(F)F)s3)C2)n1` [Example 268, 5-(difluoromethyl)-N-((1S,3R)-3-(2-(3-fluoropyridin-2-yl)-6-((1-methyl-1H-pyrazol-3-yl)oxy)-1H-imidazo[4,5-c]pyridin-1-yl)cyclohexyl)thiazole-2-carboxamide], the IC50 was 500 to 1000 nM on BCAT2 and above 5000 nM at hBCAT1.
In the same order, the values of `CC(C)Cc1nc2cnc(-c3cccc4ccoc34)cc2n1[C@@H]1CCC[C@H](NC(=O)c2ncc(Cl)s2)C1` [Example 327, N-((1S,3R)-3-(6-(benzofuran-7-yl)-2-isobutyl-1H-imidazo[4,5-c]pyridin-1-yl)cyclohexyl)-5-chlorothiazole-2-carboxamide] are 100 to 500 nM and 1000 to 5000 nM.
